Measurements: patent publication US8178091B2, “Compositions and methods for the treatment of respiratory disorders” (University of Washington, priority 2007, dated 2012)

System: lung fibroblasts
Assay: IGF-1 expression in lung fibroblasts
Type: cell-based
Conditions: not shown
Excerpt: IGF-1 was implicated as a fibroblast mitogen in BALF from patients with sarcoidosis (Allen et al., Am J Respir Cell Mol Biol 19:250-258 (1998)) and systemic sclerosis (Harrison et al., Clin Sci (Lond) 86:141-148 (1994)). […] In the experiments described herein, IGF-1 mediated cell survival and migration, but not proliferation of normal lung fibroblasts through IGF-1R. The prior studies used either the fetal fibroblast cell line IMR-90 or human fetal embryonic fibroblasts (HFL-1) to examine the proliferative response (Allen et al., Am J Respir Cell Mol Biol 19:250-258 (1998); Harrison et al., Clin Sci (Lond) 86:141-148 (1994)). In contrast, the studies described herein used early passage primary adult lung fibroblasts, which may account for differences in results. In addition, the mitogenic response to IGF in the earlier studies was determined by immunodepletion of IGF from BALF (Allen et al., Am J Respir Cell Mol Biol 19:250-258 (1998); Harrison et al., Clin Sci (Lond) 86:141-148 (1994)). Without wishing to be bound by theory, it is thought that activation of fibroblasts by other growth factors or cytokines such as TGFβ1 in BALF may be necessary for the pro-proliferative effect of IGF (Scarpa et al., Peptides 26:2201-2210 (2005); Danielpour and Song, Cytokine & growth factor reviews 17:59-74 (2006)).

TGFβ1: growth factor, mediator of fibrosis
IGF-1 expression in lung fibroblasts: significantly upregulated IGF-1 expression
